pIC50: −log10 of the molar value. Activity calls are given as the source filed them. No cut-off for these calls is given here.
Key:
HeLa [1] = experiment: Induction of apoptosis in human HeLa cells assessed as viable cells incubated at 8 uM for 24 hrs measured by annexin V-PI staining based FITC analysis (reference value: 93.9%); format: functional; conditions: read-out: Activity
HeLa [2] = experiment: Induction of apoptosis in human HeLa cells assessed as viable cells incubated at 4 uM for 24 hrs measured by annexin V-PI staining based FITC analysis (reference value: 93.9%); format: functional; conditions: read-out: Activity
HeLa [3] = experiment: Induction of apoptosis in human HeLa cells assessed as viable cells incubated at 10 uM for 24 hrs measured by annexin V-PI staining based FITC analysis (reference value: 93.9%); format: functional; conditions: read-out: Activity
NCI-H1155 = experiment: Cytotoxicity against human NCI-H1155 cells incubated for 72 hrs by MTT assay; format: functional, cell-based; conditions: NCI-H1155, 72 h
B16-F10 [4] = experiment: Induction of ferroptosis in mouse B16-F10 cells assessed as downregulation of GPX4 level measured at 4 to 10 uM by Western blotting analysis; format: functional, cell-based; conditions: dose 4-10 µM
HeLa [5] = experiment: Induction of ferroptosis in human HeLa cells assessed as increase of ACSL4 level measured at 4 to 10 uM for 24 hrs by Western blotting analysis; format: functional, cell-based; conditions: dose 4-10 µM
SMMC-7721 = experiment: Cytotoxicity against human SMMC-7721 cells incubated for 72 hrs by MTT assay; format: functional, cell-based; conditions: SMMC-7721, 72 h
HeLa [6] = experiment: Inhibition of colony migration in human HeLa cells treated for 24 hrs measured by paraformaldehyde based crystal violet staining analysis; format: functional, cell-based; conditions: dose 0.625-10 µM
HeLa [7] = experiment: Inhibition of colony formation in human HeLa cells treated at 9 uM for 24 hrs measured by paraformaldehyde based crystal violet staining analysis; format: functional, cell-based
SK-OV-3 = experiment: Cytotoxicity against human SK-OV-3 cells incubated for 72 hrs by MTT assay; format: functional, cell-based; conditions: SK-OV-3, 72 h
HeLa [8] = experiment: Upregulation of p53 expression in human HeLa cells measured at 4 to 10 uM for 24 hrs by Western blotting analysis; format: functional, cell-based; conditions: dose 4-10 µM
HeLa [9] = experiment: Cytotoxicity against human HeLa cells assessed as increase in cell viability pretreated with NAC for 1 hr followed by compound addition at 2.5 to 20 uM for 24 hrs relative to control; format: functional; conditions: dose 2.5-20 µM
HeLa [10] = experiment: Induction of ROS generation in human HeLa cells assessed as increase in ROS level; format: functional, cell-based; conditions: dose 4-10 µM
MDA-MB-231 = experiment: Cytotoxicity against human MDA-MB-231 cells incubated for 72 hrs by MTT assay; format: functional, cell-based; conditions: MDA-MB-231, 72 h
HeLa [11] = experiment: Induction of ROS generation in human HeLa cells assessed as increase in ROS level at 20 uM incubated for 1 hrs (reference value: 39.6%); format: functional
HeLa [12] = experiment: Induction of ferroptosis in human HeLa cells assessed as downregulation of SLC7A11 level measured at 4 to 10 uM for 24 hrs by Western blotting analysis; format: functional, cell-based; conditions: dose 4-10 µM
HeLa [13] = experiment: Cytotoxicity against human HeLa cells assessed as increase in cell viability pretreated with Ferrostatin-1 for 4 hrs followed by compound addition at 10 uM for 24 hrs; format: functional, cell-based
HeLa [14] = experiment: Upregulation of p21 expression in human HeLa cells measured at 4 to 10 uM for 24 hrs by Western blotting analysis; format: functional, cell-based; conditions: dose 4-10 µM
HeLa [15] = experiment: Cytotoxicity against human HeLa cells assessed as increase in cell viability pretreated with DFO for 4 hrs followed by compound addition at 10 uM for 24 hrs; format: functional, cell-based
HeLa [16] = experiment: Inhibition of colony formation in human HeLa cells treated upto 6 uM for 24 hrs measured by paraformaldehyde based crystal violet staining analysis; format: functional, cell-based
HeLa [17] = experiment: Induction of apoptosis in human HeLa cells assessed as late apoptotic cells incubated at 4 uM for 24 hrs measured by annexin V-PI staining based FITC analysis (reference value: 1.81%); format: functional
B16-F10 [18] = experiment: Induction of ferroptosis in mouse B16-F10 cells assessed as cell viability in presence of DFO at 10 uM; format: functional, cell-based
A549 = experiment: Cytotoxicity against human A549 cells incubated for 72 hrs by MTT assay; format: functional, cell-based; conditions: A549, 72 h
MCF7 = experiment: Cytotoxicity against human MCF7 cells incubated for 72 hrs by MTT assay; format: functional, cell-based; conditions: MCF7, 72 h
HeLa [19] = experiment: Induction of apoptosis in human HeLa cells assessed as apoptotic cells incubated at 10 uM for 24 hrs measured by annexin V-PI staining based FITC analysis (Rvb ~ 5%); format: functional
HeLa [20] = experiment: Cytotoxicity against human HeLa cells incubated for 72 hrs by MTT assay; format: functional, cell-based
L02 = experiment: Cytotoxicity against human L02 cells incubated for 72 hrs by MTT assay; format: functional, cell-based; conditions: L02, 72 h
SH-SY5Y = experiment: Cytotoxicity against human SH-SY5Y cells incubated for 72 hrs by MTT assay; format: functional, cell-based
HeLa [21] = experiment: Inhibition of colony formation in human HeLa cells treated for 24 hrs measured by paraformaldehyde based crystal violet staining analysis; format: functional, cell-based; conditions: dose 5-9 µM
[22] = Toxicity in immunocompetent C57BL/6J mouse allografted with B16-F10 cells assessed as tissue damage in kidney administered at 30 mg/kg, ip daily for 14 days by hematoxylin and eosin staining analysis; format: organism-based; conditions: in vivo, 336 h, time 14 day
HepG2 = experiment: Cytotoxicity against human HepG2 cells incubated for 72 hrs by MTT assay; format: functional, cell-based; conditions: HepG2, 72 h
HeLa [23] = experiment: Induction of apoptosis in human HeLa cells assessed as viable cells incubated at 10 uM for 24 hrs measured by annexin V-PI staining based FITC analysis (reference value: 94.2%); format: functional; conditions: read-out: Activity
NCI-H1355 = experiment: Cytotoxicity against human NCI-H1355 cells incubated for 72 hrs by MTT assay; format: functional, cell-based; conditions: NCI-H1355, 72 h
HeLa [24] = experiment: Effect on lipid peroxidation in human HeLa cells measured at 10 to 12 uM for 4 hrs by C11-BODIPY581/591 staining based flow cytometric analysis relative to control; format: functional; conditions: dose 10-12 µM
HeLa [25] = experiment: Induction of apoptosis in human HeLa cells assessed as necrotic cells incubated at 10 uM for 24 hrs measured by annexin V-PI staining based FITC analysis (reference value: 0.70%); format: functional
[26] = Toxicity in immunocompetent C57BL/6J mouse allografted with B16-F10 cells assessed as change of organ index in thymus administered at 30 mg/kg, ip daily for 14 days by hematoxylin and eosin staining analysis; format: organism-based; conditions: in vivo, 336 h, time 14 day
HeLa [27] = experiment: Induction of apoptosis in human HeLa cells assessed as increase in cleaved PARP expression level at 10 uM by immunoblotting analysis; format: functional, cell-based
HeLa [28] = experiment: Induction of apoptosis in human HeLa cells assessed as viable cells incubated at 6 uM for 24 hrs measured by annexin V-PI staining based FITC analysis (reference value: 93.9%); format: functional; conditions: read-out: Activity
HeLa [29] = experiment: Induction of apoptosis in human HeLa cells assessed as late apoptotic cells incubated at 10 uM for 24 hrs measured by annexin V-PI staining based FITC analysis (reference value: 3.45%); format: functional
HeLa [30] = experiment: Induction of ROS generation in human HeLa cells assessed as increase in ROS level at 20 uM incubated for 0.5 hrs (reference value: 37.8%); format: functional
HeLa [31] = experiment: Induction of ROS generation in human HeLa cells assessed as increase in ROS level at 10 uM incubated for 1 hrs (reference value: 37.8%); format: functional

CCC/C=C/C=C/C(=O)O[C@@H]1C[C@H]2[C@@H](CCCC[C@H](O)CCC)CCC[C@H]2N[C@H]1C
viability at 8 µM (HeLa [1]): 76.1%
viability at 4 µM (HeLa [2]): 91.8%
viability at 10 µM (HeLa [3]): 26.1%
pIC50 (NCI-H1155): 5.15
Activity (B16-F10 [4]): Active
Activity (HeLa [5]): Active
pIC50 (SMMC-7721): 5.39
inhibition (HeLa [6]): Dose-Dependent Effect
inhibition (HeLa [7]): Active
pIC50 (SK-OV-3): 5.10
Activity (HeLa [8]): Active
Activity (HeLa [9]): 5%
Activity (HeLa [10]): Dose-Dependent Effect
pIC50 (MDA-MB-231): 5.07
Activity (HeLa [11]): 90.1%
Activity (HeLa [12]): Active
Activity (HeLa [13]): Not toxic
Activity (HeLa [14]): Active
Activity (HeLa [15]): Not toxic
inhibition (HeLa [16]): inactive
Activity (HeLa [17]): 2.52%
Activity (B16-F10 [18]): Active
pIC50 (A549): 5.33
pIC50 (MCF7): 5.30
Activity (HeLa [19]): ~70%
pIC50 (HeLa [20]): 5.60
pIC50 (L02): 4.90
pIC50 (SH-SY5Y): 5.24
inhibition (HeLa [21]): Dose-Dependent Effect
Activity [22]: Non-Toxic
pIC50 (HepG2): 5.21
viability at 10 µM (HeLa [23]): 20.6%
pIC50 (NCI-H1355): 5.03
Activity (HeLa [24]): 10%
Activity (HeLa [25]): 2.13%
Activity [26]: Non-Toxic
Activity (HeLa [27]): Active
viability at 6 µM (HeLa [28]): 88.4%

CCCCC/C=C/C(=O)O[C@@H]1C[C@H]2[C@@H](CCCC[C@H](O)CCC)CCC[C@H]2N[C@H]1C
viability at 8 µM (HeLa [1]): 52.2%
viability at 4 µM (HeLa [2]): 91.4%
viability at 10 µM (HeLa [3]): 45.3%
pIC50 (NCI-H1155): 5.10
Activity (HeLa [29]): 31.4%
pIC50 (SMMC-7721): 5.41
inhibition (HeLa [6]): Dose-Dependent Effect
inhibition (HeLa [7]): Active
pIC50 (SK-OV-3): 5.10
Activity (HeLa [8]): Active
Activity (HeLa [9]): 5%
Activity (HeLa [10]): Dose-Dependent Effect
pIC50 (MDA-MB-231): 5.09
Activity (HeLa [13]): Not toxic
Activity (HeLa [14]): Active
Activity (HeLa [15]): Not toxic
inhibition (HeLa [16]): inactive
pIC50 (A549): 5.23
pIC50 (MCF7): 5.23
Activity (HeLa [19]): ~50%
pIC50 (HeLa [20]): 5.57
pIC50 (L02): 4.73
Activity (HeLa [30]): 80.6%
pIC50 (SH-SY5Y): 5.21
inhibition (HeLa [21]): Dose-Dependent Effect
pIC50 (HepG2): 5.21
pIC50 (NCI-H1355): 5.06
Activity (HeLa [31]): 62.3%
Activity (HeLa [24]): 10%
Activity (HeLa [27]): Active
viability at 6 µM (HeLa [28]): 65%
